Source: patent publication US6936719B2, “Biaryl compounds as serine protease inhibitors” (BioCryst Pharmaceuticals, Inc., priority 2001, dated 2005)

Key:
Format in all cases: biochemical
TF/FVIIa = TF/FVIIa (Homo sapiens, UniProt P08709); test: In vitro amidolytic assay for inhibition of TF/FVIIa (Spectrozyme-FVIIa, pNA absorbance at OD405)
Method: In Vitro Assay for Inhibition of TF/FVIIa
To assess the inhibition of the test compounds against the target enzyme, TF/FVIIa, an amidolytic assay based upon the absorbance of p-Nitroanalide (pNA) at OD405 was utilized. The IC50 of the test compounds was determined by using KC4A data reduction software (Bio-Tek Instruments) to interpolate percent inhibition from observed Vmax values.
TF/FVIIa assay reactions were performed in a 200 μL mixture containing 4 nM FVIIa, 10 nM lipidated tissue factor, in an assay buffer containing 100 mM Tris, pH 7.2, 150 mM NaCl, 5 mM calcium chloride, 0.1% bovine serum albumin (BSA), and 10% dimethyl sulfoxide (DMSO). TF and FVIIa were allowed to equilibrate at room temperature for 15 minutes. Test compounds dissolved in DMSO were incubated at varied concentrations with TF/FVIIa for 10 minutes, followed by addition of 500 µM substrate Spectrozyme-FVIIa. Reactions were incubated for 5 minutes at room temperature prior to measuring the change in OD405 run for 10 minutes at 21 second intervals with a Powerwave x (Bio-Tek Instruments) microplate reader.

human thrombin = human thrombin (Homo sapiens, UniProt P00734); test: In vitro colorimetric assay for human thrombin (Nα-Benzoyl-Phe-Val-Arg-p-Nitroanilide, OD405)
Method: In Vitro Assay for Human Thrombin
This colorimetric assay was used to assess the ability of the test compounds to inhibit the human thrombin enzyme. IC50 of the test compounds was determined by using KC4A data reduction software (Bio-Tek Instruments) to interpolate percent inhibition from observed Vmax values.
Thrombin assay reactions were performed in a 200 μL mixture containing human thrombin at (1 U/mL) in an assay buffer containing 100 mM HEPES, 10 mM calcium chloride, and 10% DMSO, pH 7.5. Test compounds dissolved in DMSO were added to thrombin enzyme reactions at varied concentrations, followed by the addition of substrate Nα-Benzoyl-Phe-Val-Arg-p-Nitroanilide at a final concentration of 1 mM. Reactions were incubated for 5 minutes at room temperature prior to measuring the change in OD405 nm for 10 minutes at 21 second intervals with a Powerwave x (Bio-Tek Instruments) microplate reader.

human pancreatic trypsin = test: In vitro enzymatic assay for human trypsin (L-BAPNA, OD405)
Method: In Vitro Assay for Human Trypsin
This enzymatic assay was employed to evaluate the ability of the test compounds to inhibit human pancreatic trypsin. IC50 of the test compounds was determined by using KC4A data reduction software (Bio-Tek Instruments) to interpolate percent inhibition from observed Vmax values.
Trypsin assay reactions were performed in a 200 μL mixture containing human pancreatic trypsin at 1 μg/mL in an assay buffer containing 200 mM triethanolamine (TEA), 10 mM calcium chloride, 10% DMSO, pH 7.8. Test compounds dissolved in DMSO were added to trypsin enzyme reactions at varied concentrations, followed by the addition of substrate Nα-Benzoyl-L-Arginine p-Nitroanilide (L-BAPNA) at a final concentration of (0.25 mg/mL). Reactions were incubated for 5 minutes at room temperature prior to measuring the change in OD405 nm for 10 minutes at 21 second intervals with a Powerwave x (Bio-Tek Instruments) microplate reader.

TF/FVIIa, sequence (P08709 213-466 limits assumed): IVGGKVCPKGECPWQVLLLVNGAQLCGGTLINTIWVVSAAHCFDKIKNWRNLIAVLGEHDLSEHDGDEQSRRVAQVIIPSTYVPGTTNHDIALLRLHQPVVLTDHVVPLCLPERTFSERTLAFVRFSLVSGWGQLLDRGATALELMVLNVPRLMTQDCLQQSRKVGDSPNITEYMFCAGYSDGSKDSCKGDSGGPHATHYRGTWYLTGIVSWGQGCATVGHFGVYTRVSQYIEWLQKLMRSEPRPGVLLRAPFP
TF/FVIIa, sequence (P08709 61-212 limits assumed): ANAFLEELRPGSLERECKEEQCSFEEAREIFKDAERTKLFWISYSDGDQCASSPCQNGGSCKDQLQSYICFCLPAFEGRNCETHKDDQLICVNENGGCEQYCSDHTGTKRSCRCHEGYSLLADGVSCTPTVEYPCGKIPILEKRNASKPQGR
TF/FVIIa, sequence (P13726 33-295 partner): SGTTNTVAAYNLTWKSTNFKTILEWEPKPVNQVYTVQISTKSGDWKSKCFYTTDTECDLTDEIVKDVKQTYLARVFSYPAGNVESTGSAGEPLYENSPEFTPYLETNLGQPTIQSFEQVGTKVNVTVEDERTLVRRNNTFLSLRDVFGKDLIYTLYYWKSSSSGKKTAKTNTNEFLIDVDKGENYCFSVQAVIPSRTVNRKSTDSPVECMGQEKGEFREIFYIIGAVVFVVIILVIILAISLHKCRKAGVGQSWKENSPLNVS

IC50 (TF/FVIIa) [nM] | IC50 (human thrombin) [nM] | IC50 (human pancreatic trypsin) [nM] | SMILES
< 100 | > 1000 | 100 to 1000 | C#CCNC(=O)c1ccc(-c2ccc(-c3ccco3)cc2C(=O)Nc2ccc(C(=N)N)cc2)c(C(=O)O)c1
< 100 | > 1000 | 100 to 1000 | C=Cc1ccc(-c2ccc(C(=O)NC(CCC)CCC)cc2C(=O)O)c(C(=O)Nc2ccc(C(=N)N)cc2)c1
< 100 | > 1000 | 100 to 1000 | C=Cc1ccc(-c2ccc(C(=O)NCC(C)C)cc2C(=O)O)c(C(=O)Nc2ccc(C(=N)N)cc2)c1

Further lines, the compound ahead of its results:

SMILES | IC50 (TF/FVIIa) [nM] | IC50 (human thrombin) [nM] | IC50 (human pancreatic trypsin) [nM]
CC(C)CNC(=O)c1ccc(-c2ccc(-c3ccncc3)cc2C(=O)Nc2ccc(C(=N)N)cc2)c(C(=O)O)c1 | > 100 | > 1000 | > 1000
CC(C)CNC(=O)c1ccc(-c2ccc(-c3ccc(CO)s3)cc2C(=O)Nc2ccc(C(=N)N)cc2)c(C(=O)O)c1 | > 100 | > 1000 | > 1000
CC(C)CNC(=O)c1ccc(-c2ccc(-c3nccs3)cc2C(=O)Nc2ccc(C(=N)N)cc2)c(C(=O)O)c1 | > 100 | > 1000 | > 1000
CC(C)CNC(=O)c1ccc(-c2ccc(C#CC(C)(C)O)cc2C(=O)Nc2ccc(C(=N)N)cc2)c(C(=O)O)c1 | > 100 |  | 
CC(C)CNC(=O)c1ccc(-c2cc(Oc3ccccc3)ccc2C(=O)Nc2ccc(C(=N)N)cc2)c(C(=O)O)c1 | > 1000 |  | 
CC(C)CNC(=O)c1ccc(-c2cc(-c3cccs3)ccc2C(=O)Nc2ccc(C(=N)N)cc2)c(C(=O)O)c1 | > 100 |  | 
N=C(N)c1ccc(NC(=O)c2cc(-c3ccco3)ccc2-c2ccc(C(=O)NCCCCCC(=O)O)cc2C(=O)O)cc1 | < 100 | > 1000 | 100 to 1000
